We go through two compounds from US20250262299A1, “DOSING FOR TREATMENT WITH ANTI-FCRH5/ANTI-CD3 BISPECIFIC ANTIBODIES” (Genentech, Inc., priority 2022, published 2025).

The subject of one data set is MM. Conditions: lenalidomide maintenance, active vs. control; cited from earlier work.
The test system of a further data set is R/R MM. Put plainly: Study GO39775 / cevostamab monotherapy clinical studies in patients with R/R MM. Type of data set: in vivo, human. An excerpt:
As of November 2021, two studies are ongoing to confirm the safety and efficacy of cevostamab in this patient population. As such, combination with lenalidomide is expected to deepen and prolong response in patients in remission on the following basis: • FcRH5 is a cell-surface antigen whose expression is restricted to cells of the B linage, including plasma cells. […] Rationale for Cevostamab Dose
The dosing schedule has been modified from a 21-day cycle to a 28-day cycle to accommodate lenalidomide dosing and to ease patient treatment burden. […] A lower target dose of 90 mg Q2W will be the starting point of dose escalation towards 132 mg. These doses have been selected based on the full body of evidence available across cevostamab studies, considering PD, PK, safety, and efficacy data.

Data set [1] in a line: Compatibility testing in extension sets. Type of data set: physicochemical. Conditions: IV infusion extension sets. An excerpt: Cevostamab will be administered as a fixed dose independent of body weight. Cevostamab will be administered to patients by IV infusion using standard IV bags where applicable. […] The drug product will be delivered by IV bag infusion, with a final cevostamab volume determined by the dose.

For data set [2], the system named is human MM cell lines and primary human MM plasma cells. Conditions: cells with a wide range of FcRH5 expression levels, including minimal expression; cited from earlier work.
The test system of another data set is Fc (Fcγ) receptors. Conditions: N297G non-glycosylated antibody; cited from earlier work.
Where [3] appears, read: Study GO39775, 0.3/3.6/160 mg, patients with R/R MM.
Setting [4] is: Study GO39775, preliminary findings.
[5] abbreviates: cevostamab monotherapy, patients with R/R MM.

For `Nc1cccc2c1CN(C1CCC(=O)NC1=O)C2=O` (stereo not drawn) [lenalidomide], in the data set on MM, the “overall survival (OS)” value was “statistically significant increase” and the “progression-free survival (PFS)” value is recorded as “statistically significant increase”.

With “cevostamab: Fc-engineered, humanized, full-length non-glycosylated IgG1 kappa T-cell-dependent bispecific antibody (TDB) that binds FcRH5 and CD3”, in the data set on R/R MM (Study GO39775, 160 mg every three weeks (Q3W)), the “safety of target dose” value was “found to be safe”. In the data set on R/R MM (setting [3]), the “induction of response with double step-up dosing” value is listed as “effective at inducing a response” and the “safety of double step-up dosing” value was “safe”. For the same compound, in the data set on R/R MM (setting [4]), the “clinical response in patients with the lowest FcRH5 expression” value is reported as “Clinical response has been observed” and the “objective response in relation to baseline FcRH5 expression” value was “able to achieve an objective response to cevostamab treatment regardless of baseline FcRH5 expression”. Also, in the data set on R/R MM (setting [5]), the efficacy entry is “shown efficacy” and the safety profile entry is given as “acceptable safety profile”. Also, the “stability in extension sets” value in data set [1] is recorded as “stable in extension sets”. Moreover, the cell killing result in data set [2] was “broadly active in cell killing”. Further, the “binding to Fc (Fcγ) receptors” value with Fc (Fcγ) receptors is given as “minimal binding”.
